Source: patent US11944623B2, “Modulators of Kv3 channels to treat pain” (Autifony Therapeutics Limited, priority 2015, dated 2024)

Columns and labels:
[1] = tested on: rat model of neuropathic pain; experiment: Neuropathic pain model (partial ligation of the sciatic nerve): paw withdrawal to mechanical pressure and cold (10° C.), general observations; format: in vivo; conditions: for changes in contralateral paw withdrawals and latencies: just attained significance at 3 hours on mechanical
Experimental: The efficacy of Compounds 1, 2, 3 and 4 was investigated using rat models of neuropathic and/or persistent inflammatory pain.
Subjects comprised male, Wistar Hanover rats, 6 animals per group (225±2 g for Compound 1 studies and Compound 2 studies; 214±1 g for Compound 3 studies; 236±1 g for Compound 4 studies).
Vehicle (12% Captisol®; 0.5% w/v HPMC and 0.1% w/v Tween-80; 5 ml/kg via the intraperitoneal route) was prepared using autoclaved deionized water not more than one week prior to use.
The details of the studies performed are outlined in Table 1.
The control for the neuropathic pain model was lamotrigine, administered at 30 mg/kg via oral delivery. The control for the inflammatory pain model was diclofenac, administered at 30 mg/kg via oral delivery. Statistical analysis was performed using one-way ANOVA, and comparisons were performed with time-matched vehicle group using Tukey's HSD test wherein * p<0.05, ** p<0.01, *** p<0.001.
Treatment groups were randomised and blinded. Groups of 6 rats were used.
Neuropathic pain was induced by partial ligation of the sciatic nerve. Briefly, the rats were anaesthetised (isoflurane/O2 inhalation), the left sciatic nerve exposed at mid-thigh level through a small incision and ⅓ to ½ of the nerve thickness tightly ligated within a 7.0 silk suture. The wound was closed with surgical glue. Animals were allowed to recover and tested 12-15 days following surgery.
Withdrawal thresholds or latencies were measured on both the ipsilateral (ligated) and contralateral (non-ligated) paws, prior to (predose) and then up to 24 h following drug or vehicle administration.
Pre-dose behavioural measurements were obtained by measuring paw withdrawals 14 days following nerve ligation; before the initiation of drug treatment. Following treatment, further readings were taken at 1, 3, 6 and 24 hour after administration.
Mechanical hyperalgesia was examined in a model of neuropathic pain by measuring paw withdrawal thresholds (PWT) to increasing mechanical force applied to the dorsal surface of the rat paw using an Analgesymeter (Ugo-Basile, Milan) equipped with a wedge-shaped probe (area 1.75 mm^2). Cut-off was set at 250 g and the end-point was taken as withdrawal of the hind paw. Both ipsilateral and contralateral paw withdrawal readings were taken.
Cold sensitivity was assessed using a commercially available cold-plate (Ugo Basile, Milan). The cold plate was allowed to stabilize for 5 minutes at the set temperature prior to testing. Paw withdrawal latencies (PWL) were determined with the cold-plate set at 10° C. The animals were lightly restrained and each hind paw in turn placed onto the surface of the cold-plate. The end point was taken as the withdrawal of the paw and recorded as the withdrawal latency for the ipsilateral and the contralateral paw. A maximum cut-off of 30 seconds was used for each paw.
In addition to behavioural pain readings, each rat was observed throughout the study for changes in general behaviour.
Data were expressed as withdrawal threshold (g) or withdrawal latencies (s) and percentage reversals calculated according to the following formula: […]
Statistical analysis was carried out on withdrawal threshold readings using ANOVA with repeated measures followed by Tukey's HSD test. The level for statistical significance was set as p<0.05.

Human Nav1.7 channels = molecular target: T1, Human Nav1.7 channels (Homo sapiens, UniProt Q15858); experiment: Nav1.7 QPatch assay; format: cell-based; conditions: 10 µM concentration (N=3)
T1 construct: expressed in transfected cells
T1 sequence (Q15858 whole entry): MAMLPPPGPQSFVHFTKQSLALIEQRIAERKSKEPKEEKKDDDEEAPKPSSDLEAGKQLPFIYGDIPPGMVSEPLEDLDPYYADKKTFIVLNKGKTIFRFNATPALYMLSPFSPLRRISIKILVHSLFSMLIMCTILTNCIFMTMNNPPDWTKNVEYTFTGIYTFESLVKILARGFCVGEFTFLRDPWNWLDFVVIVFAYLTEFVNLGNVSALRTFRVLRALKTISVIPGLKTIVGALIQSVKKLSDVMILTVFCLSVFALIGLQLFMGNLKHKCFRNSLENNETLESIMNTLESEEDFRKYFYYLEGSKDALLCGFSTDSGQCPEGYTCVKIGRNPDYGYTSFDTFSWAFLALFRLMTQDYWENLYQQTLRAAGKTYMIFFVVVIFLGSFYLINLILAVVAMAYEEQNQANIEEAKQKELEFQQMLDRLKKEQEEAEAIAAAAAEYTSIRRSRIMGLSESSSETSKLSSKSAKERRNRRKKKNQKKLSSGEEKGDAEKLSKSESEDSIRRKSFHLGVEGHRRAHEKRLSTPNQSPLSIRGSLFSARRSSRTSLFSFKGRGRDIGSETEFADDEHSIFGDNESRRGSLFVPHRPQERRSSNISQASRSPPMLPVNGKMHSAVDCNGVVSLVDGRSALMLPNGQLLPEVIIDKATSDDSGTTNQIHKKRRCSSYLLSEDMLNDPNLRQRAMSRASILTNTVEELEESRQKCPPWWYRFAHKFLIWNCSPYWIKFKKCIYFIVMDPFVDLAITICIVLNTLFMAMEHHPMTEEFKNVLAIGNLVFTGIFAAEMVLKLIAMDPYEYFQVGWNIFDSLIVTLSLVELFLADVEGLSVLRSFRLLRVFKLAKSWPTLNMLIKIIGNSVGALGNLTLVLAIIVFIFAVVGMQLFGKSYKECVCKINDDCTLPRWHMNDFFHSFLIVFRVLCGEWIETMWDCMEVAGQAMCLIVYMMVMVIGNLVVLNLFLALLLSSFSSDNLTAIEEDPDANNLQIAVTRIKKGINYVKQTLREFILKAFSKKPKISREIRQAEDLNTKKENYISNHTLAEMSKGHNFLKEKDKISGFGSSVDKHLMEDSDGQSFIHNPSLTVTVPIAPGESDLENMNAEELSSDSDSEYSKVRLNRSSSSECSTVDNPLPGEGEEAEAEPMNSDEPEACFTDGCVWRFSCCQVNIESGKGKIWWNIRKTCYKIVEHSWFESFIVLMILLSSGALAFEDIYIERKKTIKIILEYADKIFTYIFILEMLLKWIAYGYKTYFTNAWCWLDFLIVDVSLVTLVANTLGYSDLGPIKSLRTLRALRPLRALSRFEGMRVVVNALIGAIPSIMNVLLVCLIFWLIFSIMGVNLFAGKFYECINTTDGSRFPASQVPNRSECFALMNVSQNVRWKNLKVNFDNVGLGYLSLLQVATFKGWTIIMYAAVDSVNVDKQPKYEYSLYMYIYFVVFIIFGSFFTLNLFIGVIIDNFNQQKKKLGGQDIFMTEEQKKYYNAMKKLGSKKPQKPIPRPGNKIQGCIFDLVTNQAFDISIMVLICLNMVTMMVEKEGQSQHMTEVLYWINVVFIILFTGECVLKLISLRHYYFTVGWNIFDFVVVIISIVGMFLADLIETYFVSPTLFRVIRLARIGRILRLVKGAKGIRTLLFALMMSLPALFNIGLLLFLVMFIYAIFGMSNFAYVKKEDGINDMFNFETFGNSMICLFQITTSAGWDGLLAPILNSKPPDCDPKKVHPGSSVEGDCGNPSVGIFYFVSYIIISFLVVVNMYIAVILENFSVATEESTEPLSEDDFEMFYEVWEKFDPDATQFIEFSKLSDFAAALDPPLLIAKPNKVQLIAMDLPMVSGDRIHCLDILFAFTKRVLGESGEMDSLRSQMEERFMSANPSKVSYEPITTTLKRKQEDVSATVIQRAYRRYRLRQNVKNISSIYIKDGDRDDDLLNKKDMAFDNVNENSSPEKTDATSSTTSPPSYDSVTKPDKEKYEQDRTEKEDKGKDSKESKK
Experimental: Human Nav1.7 channels were stably expressed in a HEK293 cell line. Electrophysiological recordings were made at room temperature using an automated patch clamp platform (QPatch, Sophion Biosciences).
The QPatch assay was carried out at room temperature using the QPatch platform (Sophion). On the day of the experiment cells were cultured according to standard cell preparation for QPatch. Internal and external physiological solutions were freshly prepared prior to the assay. The standard extracellular solution contained 145 mM NaCl, 4 mM KCl, 2 mM CaCl2, 2 mM MgCl2, 10 mM HEPES and 10 mM glucose; the pH was adjusted to 7.4 with NaOH, and the osmolarity measured as 314mOsm/L. The standard intracellular solution contained 140 mM CsF, 10 mM NaCl, 5 mM CsOH, 1 mM EGTA, 10 mM HEPES; the pH was adjusted to 7.25 with CsOH, and the osmolarity measured as 293mOsm/L.
A series of 40 voltage pulses (from −120 mV to 0 mV, 2.4 ms long at 117 Hz) were applied every 60 s in control (twice), compound (five times), standard blocker (twice) and washout (twice). The % inhibition values were calculated by normalising the data relative to the 1st pulse (P1) and by calculating the ratio between the 40th pulse versus the 1st pulse (P40/1). Series resistance and quality of seals were monitored during the experiments. Sophion QPatch Assay Software 5.0 was used to analyse and plot all the graphs. 10 μM of the test compound was applied followed by 1 μM TTX (standard blocker), followed by saline (washout). Compounds were diluted in physiological solutions at the required concentration with a maximum of 0.1% of DMSO.

[2] = Study 1, 30 mg/kg i.p., 1 hour post-dose
[3] = Study 1, 60 mg/kg i.p., 1 hour post-dose
[4] = Study 1 of each compound, 30 mg/kg i.p., 3 hours post-dose
[5] = Study 2, 10 mg/kg i.p., 3 hours post-dose
[6] = Study 2, 30 mg/kg i.p., 3 hours post-dose
[7] = Study 2, 60 mg/kg i.p., 3 hours post-dose
[8] = Study 1 of each compound (Table 1), 60 mg/kg i.p., 3 hours post-dose
[9] = Study 1 of each compound, 60 mg/kg i.p.

SMILES	behavioural changes in the rats (general observations) ([1]; Study 1 of each compound)	reversal of cold sensitivity [1, 4] [%]	reversal of cold sensitivity [1, 5] [%]	reversal of mechanical sensitivity [1, 5] [%]	reversal of cold sensitivity [1, 6] [%]	reversal of mechanical sensitivity [1, 6] [%]	reversal of cold sensitivity [1, 7] [%]	reversal of mechanical sensitivity [1, 7] [%]	changes in contralateral paw withdrawals and latencies ([1]; Study 2)	effect on Nav1.7-mediated currents (Human Nav1.7 channels)	reversal of cold sensitivity [1, 8] [%]	reversal of mechanical sensitivity [1, 8] [%]	efficacy at 6 hours post-dose [1, 9]	other results
CC[C@@]1(C)NC(=O)N(c2cnc(Oc3ccc(C)c(OC(F)(F)F)c3)nc2)C1=O [Compound 2, (5R)-5-ethyl-5-methyl-3-[2-({4-methyl-3-[(trifluoromethyl)oxy]phenyl}oxy)-5-pyrimidinyl]-2,4-imidazolidinedione]	no apparent behavioural changes	55	35	31	70	72	95	81	small changes	No significant effect	–	–	–	reversal of cold sensitivity [1, 2]: 42%; reversal of mechanical sensitivity [1, 2]: 53%; reversal of cold sensitivity [1, 3]: 71%; reversal of mechanical sensitivity [1, 3]: 47%; duration of efficacy ([1]; Study 1, both doses (30 and 60 mg/kg i.p.)): efficacious at 3 hours by not by 6 hours post-dose; behavioural changes in the rats (general observations) ([1]; Study 2): no apparent behavioural changes
Cc1ccc(Oc2ncc(N3C(=O)NC(C)(C)C3=O)cn2)c2c1OCC21CC1 [Compound 1, 5,5-dimethyl-3-[2-(7-methylspiro[2H-benzofuran-3,1′-cyclopropane]-4-yl)oxypyrimidin-5-yl]imidazolidine-2,4-dione]	–	52	39	31	68	73	76	81	small changes	No significant effect	125	68	still efficacious	statistical activity of the lower dose ([1]; Study 1, 30 mg/kg i.p.): only statistically active against mechanical hyperalgesia; reversal of mechanical sensitivity ([1]; Study 1, 30 mg/kg i.p., 3 hours post-dose): 51%; flaccidity (general observation) ([1]; Study 1, 1 and 3 hour post-dose, both doses): slightly flaccid; rats with mild flaccidity ([1]; Study 2, 30 mg/kg i.p.): 1/6; rats with mild flaccidity ([1]; Study 2, 60 mg/kg i.p.): 2/6
Cc1ccc(Oc2ccc(-n3c(C)n[nH]c3=O)cn2)c2c1OCC21CC1 [Compound 3, 5-methyl-4-{6-[(7-methylspiro[1-benzofuran-3,1′-cyclopropan]-4-yl)oxy]pyridin-3-yl}-2,4-dihydro-3H-1,2,4-triazol-3-one]	no behavioural changes noted	–	–	–	–	–	–	–	–	No significant effect	52	46	activity was still evident	statistical significance against mechanical and cold hyperalgesia ([1]; Compound 3 neuropathic study, 60 mg/kg i.p.): attained statistical significance; changes in contralateral paw withdrawals/latencies ([1]; Compound 3 neuropathic study, 30 and 60 mg/kg i.p.): no significant changes
